In one data set the test system is MKN-45 tumors. The experiment in a line: MKN-45 gastric adenocarcinoma xenograft model. In kind it is in vivo, mouse. Here is the method:
MKN-45 and Ba/F3 ETV6-CSF1R cells were cultured using standard techniques in RPMI-1640 medium (Corning, Inc) with 10% fetal bovine serum (Thermo Fisher Scientific, Inc) at 37° C. in a humidified atmosphere with 5% CO2. For implantation, cells were harvested and pelleted by centrifugation at 250 g for 2 minutes. Cells were washed once and resuspended in serum-free medium supplemented with 50% matrigel (v/v).
Female athymic nude mice (5-8 weeks of age) were obtained from Charles River Laboratory and were housed in Innovive IVC disposable cages on HEPA filtered ventilated racks with ad libitum access to rodent chow and water. Five million cells in 100 μL serum-free medium supplemented with 50% matrigel (Corning, Inc) were implanted subcutaneously in the right flank region of the mouse. Tumor size and body weight were measured on designated days. Tumor size was measured with an electronic caliper and tumor volume was calculated as the product of length*width^2*0.5.
The Met gene amplification in MKN-45 cells underlies the molecular mechanism for tumor growth. Athymic nude mice bearing MKN-45 tumors (at the average tumor size of 210 mm^3) were dosed with Compound 5 orally BID for twelve days (FIG. 7). The control group of mice were given vehicle only. Tumor volume (TMV) was measured by caliper on the indicated days and is shown at mean±sem in FIG. 7. […] Tumor growth inhibition (TGI) was calculated as 100%*{1−[(TMVTreated Last Day of Treatment−TMVTreated First Day of Treatment)/(TMVControl on Last Day of Treatment−TMVControl on First Day of Treatment)]} when TMVTreated Last Day of Treatment≥TMVTreated First Day of Treatment. In the case of TMVTreated Last Day of Treatment<TMVTreated First Day of Treatment., tumor regression (REG) was calculated as 100%*(1−TMVTreated Last Day of Treatment/TMVTreated First Day of Treatment). […] Tumor size was reduced in 5 out 10 mice treated with Compound 5 at 10 mg/kg, BID and in 9 out of 10 mice treated with Compound 5 at 30 mg/kg.

In a further data set the test system is LU2503 tumors. The experiment in a line: LU2503 patient derived xenograft (PDX) NSCLC model. For orientation: Xenograft models place foreign cells or tissue in a host animal.
The subject of a further data set is M-NFS-60 cells. The experiment in a line: M-NFS-60 cell proliferation at varied CSF-1. The data set is classed as cell-based. The following applies: Mus musculus. Here is the method:
Two thousand cells per well were seeded in 384 well white plate for 24 hrs, and then treated with compounds for 72 hours (37° C., 5% CO2). Cell proliferation was measured using CellTiter-Glo luciferase-based ATP detection assay (Promega) following the manufacturer's protocol. IC50 determinations were performed using GraphPad Prism software (GraphPad, Inc., San Diego, CA).
The anti-cell proliferation activities against MET and CSF1R driven cell lines were conducted with MKN-45, SNU-5, Ba/F3 TEL-CSF1R cells, and M-NFS-60 respectively.

Data set [1] has as its system MET phosphorylation and downstream signaling in SNU-5 cells. The data set is described as follows: Immunoblotting for cellular kinase phosphorylation, SNU-5. The data set is classed as cell-based, human. The following applies: 4 hour incubation. The method, then: Half a million cells per well were seeded in 24 well plate for 24 hrs, and then treated with compounds for 4 hours. Cells were collected after treatment and lysed in RIPA buffer (50 mM Tris, pH 7.4, 150 mM NaCl, 1% NP-40, 0.5% Deoxycholate, 0.1% SDS) supplemented with 10 mM EDTA, 1× Halt protease and phosphatase inhibitors (Thermo Scientific). […] Membranes were incubated with chemiluminescent substrate for 5 min at room temperature (SuperSignal West Femto, Thermo Scientific). The chemiluminescent images were acquired with a C-DiGit Imaging System (LI-COR Biosciences). The relative density of the chemiluminescent bands were quantified via Image Studio Digits from LICOR. The half inhibitory concentration (IC50) value is calculated using non-linear regression analysis through GraphPad Prism software (GraphPad, Inc., San Diego, CA).
(In general: Immunoblotting shows a protein as a band on a membrane.)

The structures appear in SMILES notation. Where two headings read alike, the source gives them in different places.

Experimental for LU2503 tumors: Primary human tumor xenograft model LU2503 tumors were grown in stock mice. Tumor fragments (2-3 mm in diameter) were harvested from stock mice and inoculated into the right front back of each mouse for tumor development. 16 mice were enrolled in the study. All animals were randomly allocated to the 2 different study groups. Tumor size and body weight were measured on designated days. Tumor size was measured using a caliper and tumor volume was calculated as the product of length*width^2*0.5.

With `CCN1Cc2c(ccc(F)c2C#N)O[C@@H](C)CNC(=O)c2c(N)nn3ccc1nc23` [Compound 5, (7S)-3-amino-14-ethyl-11-fluoro-7-methyl-4-oxo-4,5,6,7,13,14-hexahydro-1,15-ethenopyrazolo[4,3-f][1,4,8,10]benzoxatriazacyclotridecine-12-carbonitrile], the “tumor growth inhibition (TGI)” value in the data set on MKN-45 tumors (3 mg/kg, BID, oral, twelve days) was 47%. The “tumor regression (REG)” value in the data set on MKN-45 tumors (10 mg/kg, BID, oral, twelve days) worked out at 6%; in the data set on MKN-45 tumors (30 mg/kg, BID, oral, twelve days) it was 44%. Also, in the data set on MKN-45 tumors (30 mg/kg), the “mice with reduced tumor size” value is given as 9 out of 10. For the same molecule, in the data set on MKN-45 tumors (treated groups 3, 10, 30 mg/kg BID, p<0.05), the “mean tumor volume (TMV) compared to control group” value is reported as “significantly lower”. In the data set with LU2503 tumors (15 mg/kg, BID for 13 days), this molecule came in with a tumor regression of 85%. Further, the body weight entry in the data set on LU2503 tumors (21 days of BID treatment at 15 mg/kg) is reported as “No body weight loss”. In addition, the IC50 was 0.3 nM with M-NFS-60 cells (read-out: M-NFS-60 IC50, CSF-1 0 ng/mL); 3 nM in the data set with M-NFS-60 cells (read-out: M-NFS-60 IC50, CSF-1 0.3 ng/mL); 11.6 nM in the data set with M-NFS-60 cells (read-out: M-NFS-60 IC50, CSF-1 1 ng/mL); 78.2 nM in the data set on M-NFS-60 cells (read-out: M-NFS-60 IC50, CSF-1 3 ng/mL); 84.1 nM in the data set on M-NFS-60 cells (read-out: M-NFS-60 IC50, CSF-1 10 ng/mL); 181 nM in the data set with M-NFS-60 cells (read-out: M-NFS-60 IC50, CSF-1 30 ng/mL). Also, in the data set with M-NFS-60 cells (read-out: M-NFS-60 IC50, CSF-1 100 ng/mL), the IC50 was 174 nM. For the same molecule, the “MET phosphorylation (gel)” value in data set [1] is “inhibited”.

The record behind these values is US12606571B2, “Macrocyclic compounds and uses thereof” (TURNING POINT THERAPEUTICS, INC., priority 2017, dated 2026).
